Results published in patent US10857121B2, “Use of malononitrile compounds for protecting animals from parasites” (MERIAL INC., priority 2014, dated 2020).

How the values were obtained:
Haematobia irritans [1] = assay: In vivo efficacy against Haematobia irritans in cattle, topical pour-on; conditions: for % Efficacy vs. Haematobia irritans at 5 h: 5 h after infestation; for % Efficacy vs. Haematobia irritans at 24 h: 24 h after infestation
Experimental: A representative compound of the invention (II-35) was evaluated for efficacy against 20 Haematobia irritans in cattle when applied topically. Four treatment groups and one untreated control group containing four animals each were formed. Treatment Group 1 was an untreated control and Treatment Group 5 was a positive control group treated with a pour-on product containing 5% (w/v) cypermethrin (Cypermil Pour-on). The animals in Treatment Groups 2, 3 and 4 were treated with a pour-on composition containing compound (II-35) to deliver doses of 20 mg/kg, 10 mg/kg and 5 mg/kg body weight, respectively. The pour-on formulations comprised a mixture of 20% (w/v), 10% (w/v) and 5% (w/v) of the active dissolved in a carrier comprising 50% (v/v)N-methylpyrrolidone, 5% (v/v) dimethyl isosorbide and qs with Miglyol® 840. All animals were infested with approximately 200 Haematobia irritans flies on Days 1, 7, 14 and 21. As the source of flies was natural and the amount of flies decreased, the infestations On Days 28 and 35 animals were with approximately 100 horn flies due to a lack of flies. Additionally, Treatment Groups 3 and 5 were not infested on Day 35, due to the lack of flies. The flies were counted and recorded five hours following infestation and on the following day (at 24 h). The counts done on Day 2 were at 48 hours after treatment.
The % efficacy (% reduction) of the each treatment group compared with the untreated control group is shown in Tables 2 and 3 below and in FIG. 1.

Haematobia irritans [2] = assay: as above; conditions: for % Efficacy vs. Haematobia irritans at 5 h: 5 h after infestation, Day 13

C#Cc1ccc(CC(C#N)(C#N)c2ccc(F)cc2)cc1 [II-35]
% Efficacy vs. Haematobia irritans at 5 h (Haematobia irritans [1]; pour-on 5 mg/kg (Group 4), Day 1): 99.5%
% Efficacy vs. Haematobia irritans at 5 h (Haematobia irritans [1]; pour-on 5 mg/kg (Group 4), Day 7): 98.3%
% Efficacy vs. Haematobia irritans at 5 h (Haematobia irritans [1]; pour-on 5 mg/kg (Group 4), Day 13): 93.2%
% Efficacy vs. Haematobia irritans at 5 h (Haematobia irritans [1]; pour-on 5 mg/kg (Group 4), Day 21): 80.0%
% Efficacy vs. Haematobia irritans at 5 h (Haematobia irritans [1]; pour-on 5 mg/kg (Group 4), Day 28): 64.1%
% Efficacy vs. Haematobia irritans at 5 h (Haematobia irritans [1]; pour-on 5 mg/kg (Group 4), Day 35): 51.5%
% Efficacy vs. Haematobia irritans at 24 h (Haematobia irritans [1]; pour-on 5 mg/kg (Group 4), Day 2): 100.0%
% Efficacy vs. Haematobia irritans at 24 h (Haematobia irritans [1]; pour-on 5 mg/kg (Group 4), Day 8): 99.7%
% Efficacy vs. Haematobia irritans at 24 h (Haematobia irritans [1]; pour-on 5 mg/kg (Group 4), Day 14): 100.0%
% Efficacy vs. Haematobia irritans at 24 h (Haematobia irritans [1]; pour-on 5 mg/kg (Group 4), Day 22): 93.5%
% Efficacy vs. Haematobia irritans at 24 h (Haematobia irritans [1]; pour-on 5 mg/kg (Group 4), Day 29): 95.5%
% Efficacy vs. Haematobia irritans at 24 h (Haematobia irritans [1]; pour-on 5 mg/kg (Group 4), Day 36): 88.1%
efficacy vs. Haematobia irritans (Haematobia irritans [1]; pour-on 5 mg/kg (Group 4), until Day 13, after 5 hours post infestation): above 93%
efficacy vs. Haematobia irritans (Haematobia irritans [1]; pour-on 5 mg/kg (Group 4), until Day 29, after 24 hours post infestation): above 93%
% Efficacy vs. Haematobia irritans at 5 h (Haematobia irritans [1]; pour-on 10 mg/kg (Group 3), Day 1): 98.9%
% Efficacy vs. Haematobia irritans at 5 h (Haematobia irritans [1]; pour-on 10 mg/kg (Group 3), Day 7): 98.2%
% Efficacy vs. Haematobia irritans at 5 h (Haematobia irritans [1]; pour-on 10 mg/kg (Group 3), Day 21): 68.3%
% Efficacy vs. Haematobia irritans at 5 h (Haematobia irritans [1]; pour-on 10 mg/kg (Group 3), Day 28): 65.6%
% Efficacy vs. Haematobia irritans at 24 h (Haematobia irritans [1]; pour-on 10 mg/kg (Group 3), Day 2): 100.0%
% Efficacy vs. Haematobia irritans at 24 h (Haematobia irritans [1]; pour-on 10 mg/kg (Group 3), Day 8): 100.0%
% Efficacy vs. Haematobia irritans at 24 h (Haematobia irritans [1]; pour-on 10 mg/kg (Group 3), Day 14): 100.0%
% Efficacy vs. Haematobia irritans at 24 h (Haematobia irritans [1]; pour-on 10 mg/kg (Group 3), Day 22): 93.1%
% Efficacy vs. Haematobia irritans at 24 h (Haematobia irritans [1]; pour-on 10 mg/kg (Group 3), Day 29): 69.2%
efficacy vs. Haematobia irritans (Haematobia irritans [1]; pour-on 10 mg/kg (Group 3), until Day 22, after 24 hours post infestation): above 93%
% Efficacy vs. Haematobia irritans at 5 h (Haematobia irritans [1]; pour-on 20 mg/kg (Group 2), Day 1): 97.8%
% Efficacy vs. Haematobia irritans at 5 h (Haematobia irritans [1]; pour-on 20 mg/kg (Group 2), Day 7): 99.2%
% Efficacy vs. Haematobia irritans at 5 h (Haematobia irritans [1]; pour-on 20 mg/kg (Group 2), Day 21): 86.6%
% Efficacy vs. Haematobia irritans at 5 h (Haematobia irritans [1]; pour-on 20 mg/kg (Group 2), Day 28): 85.0%
% Efficacy vs. Haematobia irritans at 5 h (Haematobia irritans [1]; pour-on 20 mg/kg (Group 2), Day 35): 65.8%
% Efficacy vs. Haematobia irritans at 24 h (Haematobia irritans [1]; pour-on 20 mg/kg (Group 2), Day 2): 100.0%
% Efficacy vs. Haematobia irritans at 24 h (Haematobia irritans [1]; pour-on 20 mg/kg (Group 2), Day 8): 98.3%
% Efficacy vs. Haematobia irritans at 24 h (Haematobia irritans [1]; pour-on 20 mg/kg (Group 2), Day 14): 100.0%
% Efficacy vs. Haematobia irritans at 24 h (Haematobia irritans [1]; pour-on 20 mg/kg (Group 2), Day 22): 97.9%
% Efficacy vs. Haematobia irritans at 24 h (Haematobia irritans [1]; pour-on 20 mg/kg (Group 2), Day 29): 96.9%
% Efficacy vs. Haematobia irritans at 24 h (Haematobia irritans [1]; pour-on 20 mg/kg (Group 2), Day 36): 85.6%
efficacy vs. Haematobia irritans (Haematobia irritans [1]; pour-on 20 mg/kg (Group 2), until Day 13, after 5 hours post infestation): above 93%
efficacy vs. Haematobia irritans (Haematobia irritans [1]; pour-on 20 mg/kg (Group 2), until Day 29, after 24 hours post infestation): above 93%
% Efficacy vs. Haematobia irritans at 5 h (Haematobia irritans [2]; pour-on 10 mg/kg (Group 3)): 93.8%
efficacy vs. Haematobia irritans (Haematobia irritans [2]; pour-on 10 mg/kg (Group 3), until Day 13, after 5 hours post infestation): above 93%
% Efficacy vs. Haematobia irritans at 5 h (Haematobia irritans [2]; pour-on 20 mg/kg (Group 2)): 97.7%
